Laboratory results reported in patent US20120142584A1, “NOVEL TRANSPORTER CONSTRUCTS AND TRANSPORTER CARGO CONJUGATE MOLECULES” (priority 2008, published 2012).

Assay: digestion of TAT derived transporter constructs in 10% and 50% human serum at 37° C.
Details: 10% and 50% human serum at 37° C. until complete degradation
Procedure: The table shown in FIG. 2 illustrates the amino acid sequences of these TAT derived transporter constructs with respect to their molecular weight (Mw) and pl-values (see FIG. 2). • The digestion was carried out in 10% and 50% human serum at 37° C. until complete degradation of these TAT derived transporters construct.

In the case of `N=C(N)NCCC[C@H](NC(=O)[C@H](CCCNC(=N)N)NC(=O)[C@H](CCCNC(=N)N)NC(=O)[C@H](CCC(N)=O)NC(=O)[C@H](CCCNC(=N)N)NC(=O)[C@H](CCCNC(=N)N)NC(=O)[C@H](CCCCN)NC(=O)[C@H](CCCCN)NC(=O)[C@@H](N)CCCNC(=N)N)C(=O)O` [L-TAT], the “degradation in human serum” value is reported as “degraded too early”.
